Structures are written as SMILES. Some results are limits rather than exact numbers.

The conditions of series [1]: human, in vivo.
Experimental: (§1) Suspension with Various Additional Treatments
(§2) III = 10 mg. of Metoclopramide i.v.; and
IV = g. of Sodium Bicarbonate)
The next series can be described thus: clinical. Particulars: human, in vivo, po.
Series [2] is described as follows: Blood levels of contrast medium of four patient groups after oral administration (3 g, microcrystal suspension) with various additional treatments. Particulars: sodium bicarbonate given orally with the contrast agent.
Experimental: as §1, §2
IV = g. of Sodium Bicarbonate)

Experimental for clinical: as §1, §2
IV = g. of Sodium Bicarbonate)

Take `CCN(C(=O)CCC(=O)O)c1c(I)cc(I)c(NC)c1I` [succinic acid mono-2,4,6-triiodo-3-methylamino-N-ethylanilide]: the resorption half life in series [1] was determined as 18 ± 6 min. In series [1] (30 min), the “blood level within 30 minutes after ingestion, on the average, as % of the maximum value” worked out at 80%. Also, in series [1] (po), the “Cmax (% of dose in total blood volume)” value is 23 ± 8 % of Dose in Bl. Vol and the “tmax (time of maximum blood level)” value stood at 132 ± 24 min. Moreover, in “clinical”, the half-life is 138 ± 84 min. Moreover, the highest level in “clinical” (Cmax (maximum concentration in blood)) (Cmax) was 114 ± 45 µg/mL. Also, in the series “clinical” (time after administration at which the maximum blood level is attained), the Tmax was ≤ 54 min.

For the compound `O=C(O)O` [sodium bicarbonate], the “effect of simultaneous oral administration on resorption of the contrast agent” value in series [2] is “accelerates resorption of the contrast agent in a statistically significant manner”.

The values above are taken from patent publication US4101647A, “Oral dosage form for X-ray contrast media containing a pharmaceutically acceptable base and method of use thereof” (Schering Aktiengesellschaft, priority 1975, dated 1978).
